Experimental data from patent US8530652B2, “Pyrrolopyrazoles, potent kinase inhibitors” (Agouron Pharmaceuticals, Inc., priority 2005, dated 2013).

Molecular target: PAK4 kinase domain (PAK4 KD) (Homo sapiens (Human), UniProt O96013)
Assay: PAK4 kinase domain enzymatic assay (coupled PK/LDH, NADH absorbance at 340 nm)
Type: biochemical
Conditions: PAK4 kinase domain, 25 nM PAK4 KD, 0.04 mM ATP, pH 7.5
Text: Cloning, expression, and purification of recombinant PAK4 Kinase domain (PAK4 KD): The cDNA coding for PAK4 was amplified from the EST clone (#12) (purchased from Research Genetics) by using PCR. […] The PCR amplified product was cloned into Topo vector (Invitrogen Inc.), and verified by DNA sequencing. PAK4 KD was then subcloned into expression plasmid pET28a(+), pET24a(+), or pGST4.5. The recombinant plasmids containing PAK4 KD was transformed into BL21(DE3) cells for recombinant protein expression. […] The cells were then harvested and lyzed for protein purification. Ni-NTA column (pET28a(+), pET24a(+)) and glutathione column (pGST4.5) were used for the purification.
PAK4 kinase domain enzymatic assay conditions: the enzymatic activity of PAK4 KD was measured by its ability to catalyze the transfer of a phosphate residue from a nucleoside triphosphate to an amino acid side chain of a commercially available peptide (amino acid sequence […]). The conversion of ATP to ADP accompanies the catalytic reaction. The PAK4 KD catalyzed production of ADP from ATP was coupled to the oxidation of NADH through the activities of pyruvate kinase (PK) and lactate dehydrogenase (LDH). The conversion of NADH to NAD^+ is monitored by the decrease in absorbance at 340 nm (e340=6.22 cm^−1mM^−1) using a Molecular Devices SPECTRAMAX 190 in conjunction with the Biomec FX. Typical reaction solutions contain 2 mM phosphoenolpyruvate, 0.35 mM NADH, 10 mM MgCl2, 1 mM DTT, 0.4 mM peptide ([…]) 0.04 mM ATP, 1 units/mL PK, 1 units/mL LDH, 0.01% Tween 20 in 50 mM HEPES, pH 7.5. […] The PAK KD Ki of each compound of the invention (the inhibitor) was calculated based on multiple of Percent Inhibition numbers of the inhibitor at different inhibitor concentrations. The peptide (amino sequence […]) was purchased from American Peptide Company. NADH, MgCl2, HEPES, DTT, ATP and PK/LDH were purchased from Sigma. Tween 20 was purchased from Calbiochem.

Sequence of PAK4 kinase domain (PAK4 KD) (O96013 321-572): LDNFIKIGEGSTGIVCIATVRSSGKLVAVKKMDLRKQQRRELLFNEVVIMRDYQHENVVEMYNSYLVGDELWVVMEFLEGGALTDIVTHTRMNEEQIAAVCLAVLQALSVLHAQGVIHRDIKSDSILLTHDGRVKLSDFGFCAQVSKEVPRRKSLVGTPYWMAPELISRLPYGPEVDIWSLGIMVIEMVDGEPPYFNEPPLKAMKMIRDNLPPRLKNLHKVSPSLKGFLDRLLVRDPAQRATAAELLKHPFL

## Cc1cc(C(F)(F)F)cc(Nc2n[nH]c3c2CN(C(=O)N[C@H]2C[C@@H]2c2ccccc2)C3(C)C)n1 (relative stereo) [Example 26, 3-[(4-trifluoromethyl-6-methylpyridin-2-yl)amino]-6,6-dimethyl-N-[trans-2-phenylcyclopropyl]-4,6-dihydropyrrolo[3,4-c]pyrazole-5(1H)-carboxamide]
  Ki: 220 nM

## Cc1ncnc(Nc2n[nH]c3c2CN(C(=O)N2C[C@@H]4CCCN4C[C@@H]2C)C3(C)C)c1F [Example 82, N-(5-fluoro-6-methylpyrimidin-4-yl)-6,6-dimethyl-5-{[(3S,8aS)-3-methylhexahydropyrrolo[1,2-a]pyrazin-2(1H)-yl]carbonyl}-1,4,5,6-tetrahydropyrrolo[3,4-c]pyrazol-3-amine]
  Ki: 2500 nM

## CSc1nc(Nc2n[nH]c3c2CN(C(=O)N[C@@H]2C[C@H]2c2ccccc2)C3(C)C)cc(C(F)(F)F)n1 (relative stereo) [Example 11, 6,6-dimethyl-3-{[2-(methylthio)-6-(trifluoromethyl)pyrimidin-4-yl]amino}-N-[trans-2-phenylcyclopropyl]-4,6-dihydropyrrolo[3,4-c]pyrazole-5(1H)-carboxamide]
  Ki: 960 nM

## Cc1cc2c(Nc3n[nH]c4c3CN(C(=O)O[C@H](CN(C)C)c3ccccc3)C4(C)C)ncnc2s1 [Example 71, (1S)-2-(dimethylamino)-1-phenylethyl 6,6-dimethyl-3-[(6-methylthieno[2,3-d]pyrimidin-4-yl)amino]-4,6-dihydropyrrolo[3,4-c]pyrazole-5(1H)-carboxylate]
  Ki: 5.2 nM

## CC1(C)c2[nH]nc(Nc3cc(Cl)nc(Cl)n3)c2CN1C(=O)N[C@H]1C[C@@H]1c1ccccc1 (relative stereo) [Example 4, 3-[(2,6-dichloropyrimidin-4-yl)amino]-6,6-dimethyl-N-[trans-2-phenylcyclopropyl]-4,6-dihydropyrrolo[3,4-c]pyrazole-5(1H)-carboxamide]
  Ki: 110 nM

## CC1(C)c2[nH]nc(Nc3ncnc4ccccc34)c2CN1C(=O)N[C@@H]1C[C@H]1c1ccccc1 (relative stereo) [Example 85, 3-(quinazolin-4-ylamino)-6,6-dimethyl-N-[trans-2-phenylcyclopropyl]-4,6-dihydropyrrolo[3,4-c]pyrazole-5(1H)-carboxamide]
  Ki: 100 nM

## COc1nc(Nc2n[nH]c3c2CN(C(=O)N[C@H]2C[C@@H]2c2ccccc2)C3(C)C)nc(OC)n1 (relative stereo) [Example 14, 3-[(4,6-dimethoxy-1,3,5-triazin-2-yl)amino]-6,6-dimethyl-N-[trans-2-phenylcyclopropyl]-4,6-dihydropyrrolo[3,4-c]pyrazole-5(1H)-carboxamide]
  Ki: 270 nM

## CC1(C)c2[nH]nc(Nc3cccc(C(F)(F)F)n3)c2CN1C(=O)N[C@H]1C[C@@H]1c1ccccc1 (relative stereo) [Example 27, 3-[(6-trifluoromethylpyridin-2-yl)amino]-6,6-dimethyl-N-[trans-2-phenylcyclopropyl]-4,6-dihydropyrrolo[3,4-c]pyrazole-5(1H)-carboxamide]
  Ki: 200 nM

## CC1(C)c2[nH]nc(Nc3nc(C4CC4)nc4ccccc34)c2CN1C(=O)N[C@@H]1C[C@H]1c1ccccc1 (relative stereo) [Example 86, 3-[(2-cyclopropylquinazolin-4-yl)amino]-6,6-dimethyl-N-[trans-2-phenylcyclopropyl]-4,6-dihydropyrrolo[3,4-c]pyrazole-5(1H)-carboxamide]
  Ki: 55 nM

## CCc1cc(Nc2n[nH]c3c2CN(C(=O)N[C@H](CN(C)C)c2ccccc2)C3(C)C)ncn1 [Example 54, N-[(1S)-2-(Dimethylamino)-1-phenylethyl]-3-[(6-ethylpyrimidin-4-yl)amino]-6,6-dimethyl-4,6-dihydropyrrolo[3,4-c]pyrazole-5(1H)-carboxamide]
  Ki: 140 nM

## COc1nc(Nc2n[nH]c3c2CN(C(=O)N[C@@H]2C[C@H]2c2ccccc2)C3(C)C)nc(N2CCCC2)n1 (relative stereo) [Example 19, 3-[(4-methoxy-6-pyrrolidin-1-yl-1,3,5-triazin-2-yl)amino]-6,6-dimethyl-N-[trans-2-phenylcyclopropyl]-4,6-dihydropyrrolo[3,4-c]pyrazole-5(1H)-carboxamide]
  Ki: 190 nM

## CC1(C)c2[nH]nc(Nc3nc(N)nc(Cl)n3)c2CN1C(=O)N[C@@H]1C[C@H]1c1ccccc1 (relative stereo) [Example 8, 3-[(4-amino-6-chloro-1,3,5-triazin-2-yl)amino]-6,6-dimethyl-N-[trans-2-phenylcyclopropyl]-4,6-dihydropyrrolo[3,4-c]pyrazole-5(1H)-carboxamide]
  Ki: 610 nM

## CC1(C)c2[nH]nc(Nc3cc(C(F)(F)F)ccn3)c2CN1C(=O)N[C@H]1C[C@@H]1c1ccccc1 (relative stereo) [Example 25, 3-[(4-trifluoromethylpyridin-2-yl)amino]-6,6-dimethyl-N-[trans-2-phenylcyclopropyl]-4,6-dihydropyrrolo[3,4-c]pyrazole-5(1H)-carboxamide]
  Ki: 780 nM

## CC1(C)c2[nH]nc(Nc3nccc(C(F)(F)F)n3)c2CN1C(=O)N[C@H]1C[C@@H]1c1ccccc1 (relative stereo) [Example 28, 6,6-dimethyl-N-[trans-2-phenylcyclopropyl]-3-{[4-(trifluoromethyl)pyrimidin-2-yl]amino}-4,6-dihydropyrrolo[3,4-c]pyrazole-5(1H)-carboxamide]
  Ki: 270 nM

## CC1(C)c2[nH]nc(Nc3cc(C#N)ccn3)c2CN1C(=O)N[C@H]1C[C@@H]1c1ccccc1 (relative stereo) [Example 29, 3-[(4-cyanopyridin-2-yl)amino]-6,6-dimethyl-N-[trans-2-phenylcyclopropyl]-4,6-dihydropyrrolo[3,4-c]pyrazole-5(1H)-carboxamide]
  Ki: 660 nM

## CN(C)C[C@@H](NC(=O)N1Cc2c(Nc3ncnc4c3ncn4C)n[nH]c2C1(C)C)c1ccccc1 [Example 57, N-[(1S)-2-(dimethylamino)-1-phenylethyl]-6,6-dimethyl-3-[(9-methyl-9H-purin-6-yl)amino]-4,6-dihydropyrrolo[3,4-c]pyrazole-5(1H)-carboxamide]
  Ki: 940 nM

## COc1nc(Nc2n[nH]c3c2CN(C(=O)NC2CC2c2ccccc2)C3(C)C)nc(N2CC2C)n1 (stereo not drawn) [Example 18, 3-{[4-methoxy-6-(2-methylaziridin-1-yl)-1,3,5-triazin-2-yl]amino}-6,6-dimethyl-N-[trans-2-phenylcyclopropyl]-4,6-dihydropyrrolo[3,4-c]pyrazole-5(1H)-carboxamide]
  Ki: 340 nM

## COc1nc(Nc2n[nH]c3c2CN(C(=O)NC2CC2c2ccccc2)C3(C)C)nc(N2CCC[C@H]2C(N)=O)n1 (stereo partly drawn) [Example 21, 3-({4-[(2S)-2-(aminocarbonyl)pyrrolidin-1-yl]-6-methoxy-1,3,5-triazin-2-yl}amino)-6,6-dimethyl-N-[trans-2-phenylcyclopropyl]-4,6-dihydropyrrolo[3,4-c]pyrazole-5(1H)-carboxamide]
  Ki: 240 nM

## CNC(=O)[C@@H]1CCCN1c1nc(Nc2n[nH]c3c2CN(C(=O)NC2CC2c2ccccc2)C3(C)C)nc(OC)n1 (some centres unmarked) [Example 17]
  Ki: 770 nM

## CC1(C)c2[nH]nc(Nc3ncncc3F)c2CN1C(=O)N[C@H]1C[C@@H]1c1ccccc1 (relative stereo) [Example 48, 3-[(5-fluoropyrimidin-4-yl)amino]-6,6-dimethyl-N-[trans-2-phenylcyclopropyl]-4,6-dihydropyrrolo[3,4-c]pyrazole-5(1H)-carboxamide]
  Ki: 1000 nM
